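Compound exposure: 48 hours, 5 concentrations, 96-well plates. GI50: concentration for 50% inhibition of growth.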 Activity calls are given as the source filed them. Rule as the data show it: active = GI50 up to about 1.1 µM and inactive = higher.
Key:
Assay in all cases: DTP human tumour cell line panel, 48 h
786-0 = test system: 786-0
A498 = test system: A498
A549 = test system: A549
ACHN = test system: ACHN
BT-549 = test system: BT-549
CAKI-1 = test system: CAKI-1
CCRF-CEM = test system: CCRF-CEM
COLO 205 = test system: COLO 205
DU-145 = test system: DU-145
EKVX = test system: EKVX
HCC 2998 = test system: HCC 2998
HCT-116 = test system: HCT-116
HCT-15 = test system: HCT-15
HL-60 = test system: HL-60
HOP-62 = test system: HOP-62
HT-29 = test system: HT-29
Hs-578T = test system: Hs-578T
IGROV-1 = test system: IGROV-1
K562 = test system: K562
KM12 = test system: KM12
LOX IMVI = test system: LOX IMVI
M14 = test system: M14
MCF7 = test system: MCF7
MDA-MB-231 = test system: MDA-MB-231
MDA-MB-435 = test system: MDA-MB-435
MDA-N = test system: MDA-N
MOLT-4 = test system: MOLT-4
Malme-3M = test system: Malme-3M
NCI-H226 = test system: NCI-H226
NCI-H23 = test system: NCI-H23
NCI-H460 = test system: NCI-H460
NCI-H522 = test system: NCI-H522
NCI/ADR-RES = test system: NCI/ADR-RES
OVCAR-3 = test system: OVCAR-3
OVCAR-5 = test system: OVCAR-5
OVCAR-8 = test system: OVCAR-8
PC-3 = test system: PC-3
RPMI-8226 = test system: RPMI-8226
RXF 393 = test system: RXF 393
SF-268 = test system: SF-268
SF-295 = test system: SF-295
SF-539 = test system: SF-539
SK-MEL-28 = test system: SK-MEL-28
SK-MEL-2 = test system: SK-MEL-2
SK-MEL-5 = test system: SK-MEL-5
SK-OV-3 = test system: SK-OV-3
SN12C = test system: SN12C
SNB-19 = test system: SNB-19
SNB-75 = test system: SNB-75
SR = test system: SR
SW-620 = test system: SW-620
TK-10 = test system: TK-10
U-251 = test system: U-251
UACC-257 = test system: UACC-257
UACC-62 = test system: UACC-62
UO-31 = test system: UO-31
HOP-92 = test system: HOP-92
OVCAR-4 = test system: OVCAR-4
T47D = test system: T47D

SMILES: C/C(=N/NC(=S)N1CCCCC1)c1cccc(/C(C)=N\NC(=S)N2CCCCC2)n1
- GI50 (786-0): 2.01 µM (inactive)
- GI50 (A498): 1.69 µM (inactive)
- GI50 (A549): 3 µM (inactive)
- GI50 (ACHN): 1.46 µM (inactive)
- GI50 (BT-549): 1.92 µM (inactive)
- GI50 (CAKI-1): 2.08 µM (inactive)
- GI50 (CCRF-CEM): 3 µM (inactive)
- GI50 (COLO 205): 2.43 µM (inactive)
- GI50 (DU-145): 2.23 µM (inactive)
- GI50 (EKVX): 2.13 µM (inactive)
- GI50 (HCC 2998): 2.33 µM (inactive)
- GI50 (HCT-116): 1.74 µM (inactive)
- GI50 (HCT-15): 1.66 µM
- GI50 (HL-60): 1.84 µM (inactive)
- GI50 (HOP-62): 4.71 µM (inactive)
- GI50 (HT-29): 2.51 µM (inactive)
- GI50 (Hs-578T): 2.38 µM (inactive)
- GI50 (IGROV-1): 1.94 µM (inactive)
- GI50 (K562): 2.28 µM (inactive)
- GI50 (KM12): 2.33 µM (inactive)
- GI50 (LOX IMVI): 2.07 µM (inactive)
- GI50 (M14): 1.94 µM (inactive)
- GI50 (MCF7): 1.86 µM (inactive)
- GI50 (MDA-MB-231): 1.31 µM (inactive)
- GI50 (MDA-MB-435): 1.92 µM (inactive)
- GI50 (MDA-N): 1.51 µM (inactive)
- GI50 (MOLT-4): 2.4 µM (inactive)
- GI50 (Malme-3M): 2.29 µM (inactive)
- GI50 (NCI-H226): 2.05 µM (inactive)
- GI50 (NCI-H23): 3.93 µM (inactive)
- GI50 (NCI-H460): 1.89 µM (inactive)
- GI50 (NCI-H522): 1.77 µM (inactive)
- GI50 (NCI/ADR-RES): 2.06 µM (inactive)
- GI50 (OVCAR-3): 2.21 µM (inactive)
- GI50 (OVCAR-5): 0.423 µM (active)
- GI50 (OVCAR-8): 1.67 µM (inactive)
- GI50 (PC-3): 1.65 µM (inactive)
- GI50 (RPMI-8226): 2.3 µM (inactive)
- GI50 (RXF 393): 2.26 µM (inactive)
- GI50 (SF-268): 3.22 µM (inactive)
- GI50 (SF-295): 1.95 µM (inactive)
- GI50 (SF-539): 1.92 µM (inactive)
- GI50 (SK-MEL-28): 2.01 µM (inactive)
- GI50 (SK-MEL-2): 2.1 µM (inactive)
- GI50 (SK-MEL-5): 1.95 µM (inactive)
- GI50 (SK-OV-3): 1.91 µM (inactive)
- GI50 (SN12C): 1.93 µM (inactive)
- GI50 (SNB-19): 2.47 µM (inactive)
- GI50 (SNB-75): 2.62 µM (inactive)
- GI50 (SR): 2.07 µM (inactive)
- GI50 (SW-620): 3.15 µM (inactive)
- GI50 (TK-10): 1.8 µM (inactive)
- GI50 (U-251): 2.04 µM (inactive)
- GI50 (UACC-257): 2.85 µM (inactive)
- GI50 (UACC-62): 2.42 µM (inactive)
- GI50 (UO-31): 1.45 µM (inactive)

SMILES: C#CC1(OC(C)=O)CCC2C3CC=C4C=C(OC(C)=O)CCC4(C)C3CCC21C (configuration not stated)
- GI50 (786-0): 30.3 µM (inactive)
- GI50 (A498): 46.6 µM (inactive)
- GI50 (A549): 31.6 µM (inactive)
- GI50 (ACHN): 26.7 µM (inactive)
- GI50 (BT-549): 31.8 µM (inactive)
- GI50 (CAKI-1): 36.5 µM (inactive)
- GI50 (CCRF-CEM): 12.6 µM (inactive)
- GI50 (COLO 205): 16.2 µM (inactive)
- GI50 (DU-145): 31.1 µM (inactive)
- GI50 (EKVX): 30.5 µM (inactive)
- GI50 (HCC 2998): 16 µM (inactive)
- GI50 (HCT-116): 16.2 µM (inactive)
- GI50 (HCT-15): 23.3 µM
- GI50 (HL-60): 28.6 µM (inactive)
- GI50 (HOP-62): 44.9 µM (inactive)
- GI50 (HOP-92): 16.1 µM (inactive)
- GI50 (HT-29): 17.2 µM (inactive)
- GI50 (Hs-578T): 40.4 µM (inactive)
- GI50 (IGROV-1): 19.3 µM (inactive)
- GI50 (K562): 23.9 µM (inactive)
- GI50 (KM12): 20.4 µM (inactive)
- GI50 (LOX IMVI): 22.7 µM (inactive)
- GI50 (M14): 26.7 µM (inactive)
- GI50 (MCF7): 24.5 µM (inactive)
- GI50 (MDA-MB-231): 24.2 µM (inactive)
- GI50 (MDA-MB-435): 20.1 µM (inactive)
- GI50 (MOLT-4): 13.2 µM (inactive)
- GI50 (Malme-3M): 18 µM (inactive)
- GI50 (NCI-H226): 24.8 µM (inactive)
- GI50 (NCI-H23): 18.3 µM (inactive)
- GI50 (NCI-H460): 27 µM (inactive)
- GI50 (NCI-H522): 17.4 µM (inactive)
- GI50 (NCI/ADR-RES): 26.9 µM (inactive)
- GI50 (OVCAR-3): 20 µM (inactive)
- GI50 (OVCAR-4): 19.4 µM (inactive)
- GI50 (OVCAR-5): 34.7 µM (inactive)
- GI50 (OVCAR-8): 19.1 µM (inactive)
- GI50 (RPMI-8226): < 0.01 µM (active)
- GI50 (SF-268): 23.8 µM (inactive)
- GI50 (SF-295): 25.2 µM (inactive)
- GI50 (SF-539): 21.3 µM (inactive)
- GI50 (SK-MEL-28): 25.9 µM (inactive)
- GI50 (SK-MEL-2): 19.7 µM (inactive)
- GI50 (SK-MEL-5): 18.3 µM (inactive)
- GI50 (SK-OV-3): 36.2 µM (inactive)
- GI50 (SN12C): 19.5 µM (inactive)
- GI50 (SNB-19): 32.4 µM (inactive)
- GI50 (SNB-75): 28.1 µM (inactive)
- GI50 (SR): 16.3 µM (inactive)
- GI50 (SW-620): 23.4 µM (inactive)
- GI50 (T47D): 61.5 µM (inactive)
- GI50 (TK-10): 24.3 µM (inactive)
- GI50 (U-251): 19.5 µM (inactive)
- GI50 (UACC-257): 17.4 µM (inactive)
- GI50 (UACC-62): 18.3 µM (inactive)
- GI50 (UO-31): 23.1 µM (inactive)

Source: ChEMBL document CHEMBL1201862, “PubChem BioAssay data set” (2004)
